According to PMC10824666 (Nature Cancer, 2023):
Read-outs that look alike come from different tables or passages of the source. One block for each compound: values may come before it.

Assays:
FLT3 = target: T1, FLT3 (Homo sapiens, UniProt P36888); test: biochemical; set-up: Eurofins DiscoverX kinase panel, competitive binding assay at 1 uM, percent of DMSO control; settings: competitive binding, percent of DMSO control
T1 sequence (P36888 1-993): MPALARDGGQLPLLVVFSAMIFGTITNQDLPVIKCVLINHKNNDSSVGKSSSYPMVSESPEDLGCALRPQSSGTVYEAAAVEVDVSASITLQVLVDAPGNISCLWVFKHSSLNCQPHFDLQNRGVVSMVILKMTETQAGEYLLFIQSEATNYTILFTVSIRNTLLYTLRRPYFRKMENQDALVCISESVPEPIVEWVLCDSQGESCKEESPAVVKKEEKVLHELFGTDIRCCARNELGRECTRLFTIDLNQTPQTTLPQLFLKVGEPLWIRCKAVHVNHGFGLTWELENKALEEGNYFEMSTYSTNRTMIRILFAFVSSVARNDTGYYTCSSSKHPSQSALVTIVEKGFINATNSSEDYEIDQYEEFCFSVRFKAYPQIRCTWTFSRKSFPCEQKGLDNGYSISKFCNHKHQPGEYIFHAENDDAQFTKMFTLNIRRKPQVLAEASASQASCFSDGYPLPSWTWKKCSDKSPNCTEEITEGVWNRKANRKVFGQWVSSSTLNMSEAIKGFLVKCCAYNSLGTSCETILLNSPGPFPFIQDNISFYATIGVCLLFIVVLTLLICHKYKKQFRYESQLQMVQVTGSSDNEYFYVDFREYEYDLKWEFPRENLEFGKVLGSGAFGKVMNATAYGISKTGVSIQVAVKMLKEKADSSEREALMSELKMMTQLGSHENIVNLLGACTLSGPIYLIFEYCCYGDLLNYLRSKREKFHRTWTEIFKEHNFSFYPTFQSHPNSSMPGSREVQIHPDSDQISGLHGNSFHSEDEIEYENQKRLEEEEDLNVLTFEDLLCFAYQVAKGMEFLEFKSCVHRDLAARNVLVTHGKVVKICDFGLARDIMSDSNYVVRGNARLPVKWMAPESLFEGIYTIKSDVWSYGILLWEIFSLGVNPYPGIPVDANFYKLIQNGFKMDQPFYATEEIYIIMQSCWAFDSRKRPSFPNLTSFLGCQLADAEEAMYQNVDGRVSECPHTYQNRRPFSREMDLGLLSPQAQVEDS
Method in brief: (§1)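 Single-point profiling at 1 µM compound in a competition-binding format against 96 kinases, read out as POC relative to control; n = 1.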

PRKG1 = target: T2, PRKG1 (Homo sapiens, UniProt Q13976); test: biochemical; set-up: Eurofins DiscoverX kinase panel, competitive binding assay at 1 uM, percent of DMSO control; settings: competitive binding, percent of DMSO control
T2 sequence (Q13976 1-671): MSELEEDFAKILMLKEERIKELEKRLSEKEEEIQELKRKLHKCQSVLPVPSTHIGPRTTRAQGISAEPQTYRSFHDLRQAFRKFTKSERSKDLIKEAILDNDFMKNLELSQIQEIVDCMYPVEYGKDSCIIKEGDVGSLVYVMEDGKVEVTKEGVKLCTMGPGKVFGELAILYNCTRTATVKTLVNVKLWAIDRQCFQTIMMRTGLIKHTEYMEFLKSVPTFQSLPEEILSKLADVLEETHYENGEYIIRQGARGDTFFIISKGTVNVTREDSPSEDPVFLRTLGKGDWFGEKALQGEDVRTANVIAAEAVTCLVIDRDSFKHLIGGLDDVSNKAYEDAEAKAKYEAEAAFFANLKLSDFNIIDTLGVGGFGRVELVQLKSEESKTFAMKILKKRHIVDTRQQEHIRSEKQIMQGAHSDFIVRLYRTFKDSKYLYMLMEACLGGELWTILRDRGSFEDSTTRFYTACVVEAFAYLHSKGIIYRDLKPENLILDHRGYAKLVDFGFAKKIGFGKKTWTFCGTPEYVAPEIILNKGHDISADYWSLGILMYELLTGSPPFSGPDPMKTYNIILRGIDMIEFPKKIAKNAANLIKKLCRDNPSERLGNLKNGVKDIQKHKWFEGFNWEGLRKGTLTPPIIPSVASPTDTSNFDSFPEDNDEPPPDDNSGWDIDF
Method in brief: as §1

[1] = read-out: Kinome Profiling performed by Eurofins DiscoverX / AM-1882, 1.0 µM / POC
[2] = read-out: Kinome Profiling performed by Eurofins DiscoverX / AM-5308, 1.0 µM / POC
[3] = read-out: Kinome Profiling performed by Eurofins DiscoverX / AM-0277, 1.0 µM / POC

remaining activity at 1 µM (FLT3; [1]): 88% | remaining activity at 1 µM (PRKG1; [1]): 89%
SMILES: CC(C)(C)NS(=O)(=O)c1cccc(NC(=O)c2ccc(S(=O)(=O)NC(C)(C)C)cc2N2CCC3(CC2)CC3)c1 [AM-1882]

remaining activity at 1 µM (FLT3; [2]): 90.5% | remaining activity at 1 µM (PRKG1; [2]): 100%
SMILES: C[C@@H]1CN(c2cccc(NC(=O)c3ccc(NS(=O)(=O)CCO)cc3N3CCC4(CC3)CC4)n2)CCO1 [AM-5308]

remaining activity at 1 µM (FLT3; [3]): 94% | remaining activity at 1 µM (PRKG1; [3]): 87%
SMILES: CC(C)(CO)Nc1ccc(C(=O)Nc2cccc(S(=O)(=O)C3CCCC3)c2)c(N2CCC3(CC2)CC3)n1 [AM-0277]
